In brackets after ≈: the same amount, converted by molar mass.

The subject of the assay is P388. The assay can be described thus: Cytotoxicity against mouse P388 cells by MTT assay. Type of assay: functional. As to conditions: read-out: ED50 (the source's name). (In general: Tetrazolium dyes change colour on reduction, which living cells bring about.)
Consider `CC(=O)OC(C)(C)[C@H]1C=C2[C@@H](C)CC[C@@H](O)[C@]2(C)CC1` [JUNCEOL A], for which the EC50 was 5.1 µg/mL (≈ 18.2 µM). Next, `C=C1CC[C@H](C(C)C)[C@@H]2[C@H]1[C@H]1C[C@](C)(O)[C@@H](O)CC[C@@](C)(O)[C@@H]2O1` [SCLEROPHYTIN A]: 2.3 µg/mL (≈ 6.79 µM); `C=C1CC[C@H](C(C)C)[C@@H]2[C@H]1[C@@H]1CC(=C)[C@@H](O)CC[C@](C)(O)[C@H]2O1` [CLADIELLISIN]: 2 µg/mL (≈ 6.24 µM).

The values above are taken from ChEMBL document CHEMBL1156349, “Junceol A, a new sesquiterpenoid from the sea pen Virgularia juncea” (2001).
